Laboratory results reported in the supplement of paper PMC4862054.

What was measured:
Settings in all cases: incubation time: 72 h
MDA-MB-453 [1] = experiment: drug sensitivity score (DSS), CellTox Green (DSS (AUC-based score)); higher = stronger drug effect (viability inhibition or cytotoxicity); extreme values may be limits of the assay
Summary of the method: (§1)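 The drug sensitivity score reflects the area under a fitted dose-response curve. To obtain it, breast cancer cells in 20 µl suspension were seeded into 384-well plates containing compound at 5 concentrations, 10-fold apart over a compound-specific 10,000-fold range, and incubated 72 h. CellTox Green fluorescence (485/520 nm) was read first and CellTiter-Glo luminescence second, after 10 min at room temperature. Each plate was normalised to 0.1 % DMSO and a positive kill control.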

CAL-148 [2] = experiment: as above
Summary of the method: as §1

CAL-120 [3] = experiment: as above
Summary of the method: as §1

DU-4475 [4] = experiment: as above
Summary of the method: as §1

HCC1937 [5] = experiment: as above
Summary of the method: as §1

BT-549 [6] = experiment: as above
Summary of the method: as §1

BT-474 [7] = experiment: as above
Summary of the method: as §1

MDA-MB-231 [8] = experiment: as above
Summary of the method: as §1

CAL-85-1 [9] = experiment: as above
Summary of the method: as §1

HCC1143 [10] = experiment: as above
Summary of the method: as §1

MFM-223 [11] = experiment: as above
Summary of the method: as §1

MDA-MB-453 [12] = experiment: normalised viability (% of control), CellTiter-Blue; higher = more viable cells (about 100 = DMSO control)
Experimental: (§2)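 DSRT, CellTiter-Blue viability, 72 h incubation. Signal is normalised to DMSO and benzethonium chloride controls. Value is the normalised response at dose 3.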

CAL-148 [13] = experiment: as above
Experimental: as §2

CAL-120 [14] = experiment: as above
Experimental: as §2

HDQ-P1 = experiment: as above
Experimental: as §2

DU-4475 [15] = experiment: as above
Experimental: as §2

HCC1937 [16] = experiment: as above
Experimental: as §2

BT-549 [17] = experiment: as above
Experimental: as §2

HCC1599 = experiment: as above
Experimental: as §2

BT-474 [18] = experiment: as above
Experimental: as §2

Hs578T = experiment: as above
Experimental: as §2

MDA-MB-436 = experiment: as above
Experimental: as §2

MDA-MB-468 = experiment: as above
Experimental: as §2

MDA-MB-231 [19] = experiment: as above
Experimental: as §2

CAL-85-1 [20] = experiment: as above
Experimental: as §2

CAL-51 = experiment: as above
Experimental: as §2

SK-BR-3 = experiment: as above
Experimental: as §2

HCC1143 [21] = experiment: as above
Experimental: as §2

MFM-223 [22] = experiment: as above
Experimental: as §2

Structure (SMILES)	drug sensitivity score (MDA-MB-453 [1])	drug sensitivity score (CAL-148 [2])	drug sensitivity score (CAL-120 [3])	drug sensitivity score (DU-4475 [4])	drug sensitivity score (HCC1937 [5])	drug sensitivity score (BT-549 [6])	drug sensitivity score (BT-474 [7])	drug sensitivity score (MDA-MB-231 [8])	drug sensitivity score (CAL-85-1 [9])	drug sensitivity score (HCC1143 [10])	drug sensitivity score (MFM-223 [11])	normalised viability (MDA-MB-453 [12]; 10 nM)	normalised viability (CAL-148 [13]; 10 nM)	normalised viability (CAL-120 [14]; 100 nM)	normalised viability (HDQ-P1; 10 nM)	normalised viability (DU-4475 [15]; 10 nM)	normalised viability (HCC1937 [16]; 100 nM)	normalised viability (BT-549 [17]; 100 nM)	normalised viability (HCC1599; 100 nM)	normalised viability (BT-474 [18]; 100 nM)	other results
Cc1c(N)nc([C@H](CC(N)=O)NC[C@H](N)C(N)=O)nc1C(=O)N[C@H](C(=O)N[C@H](C)[C@@H](O)[C@H](C)C(=O)N[C@H](C(=O)NCCc1nc(-c2nc(C(=O)NCCC[S+](C)C)cs2)cs1)[C@@H](C)O)[C@@H](OC1OC(CO)C(O)C(O)C1OC1OC(CO)C(O)C(OC(N)=O)C1O)c1cnc[nH]1 (some centres undefined) [Bleomycin]	0	8.42	0	0	0	1.71	0	4.48	0.93	0	0	102%	77.6%	86.3%	82.3%	120%	91.4%	61.4%	134%	96%	normalised viability (Hs578T; 100 nM): 68.7%; normalised viability (MDA-MB-436; 100 nM): 88.2%; normalised viability (MDA-MB-468; 100 nM): 86.5%; normalised viability (MDA-MB-231 [19]; 100 nM): 81.8%; normalised viability (CAL-85-1 [20]; 10 nM): 107%; normalised viability (CAL-51; 10 nM): 98.2%; normalised viability (SK-BR-3; 100 nM): 90.8%; normalised viability (HCC1143 [21]; 100 nM): 74.7%; normalised viability (MFM-223 [22]; 100 nM): 99.5%
Cc1cc2c(F)c(Oc3ncnn4cc(OC[C@@H](C)O)c(C)c34)ccc2[nH]1 [Brivanib]	0	0	0	0	0	0	0	0	0.499	0	0	–	–	–	–	–	–	–	–	–	normalised viability (MDA-MB-453 [12]; 1 nM): 102%; normalised viability (CAL-148 [13]; 1 nM): 82.3%; normalised viability (CAL-120 [14]; 10 nM): 88.2%; normalised viability (HDQ-P1; 1 nM): 94.8%; normalised viability (DU-4475 [15]; 1 nM): 96.3%; normalised viability (HCC1937 [16]; 10 nM): 97.2%; normalised viability (BT-549 [17]; 10 nM): 93.9%; normalised viability (HCC1599; 10 nM): 96.2%; normalised viability (BT-474 [18]; 10 nM): 102%; normalised viability (Hs578T; 10 nM): 88.9%; normalised viability (MDA-MB-436; 10 nM): 104%; normalised viability (MDA-MB-468; 10 nM): 103%; normalised viability (MDA-MB-231 [19]; 10 nM): 98.1%; normalised viability (CAL-85-1 [20]; 1 nM): 105%; normalised viability (CAL-51; 1 nM): 91.8%; normalised viability (SK-BR-3; 10 nM): 75.5%; normalised viability (HCC1143 [21]; 10 nM): 78.8%; normalised viability (MFM-223 [22]; 10 nM): 90.1%
CC(C)C[C@H](NC(=O)[C@H](CCc1ccccc1)NC(=O)CN1CCOCC1)C(=O)N[C@@H](Cc1ccccc1)C(=O)N[C@@H](CC(C)C)C(=O)[C@@]1(C)CO1 [Carfilzomib]	0	19	17.2	0	18.4	8.43	8.3	24.1	24.8	0	14.4	–	–	–	–	–	–	–	–	–	normalised viability (MDA-MB-453 [12]; 1 nM): 96.8%; normalised viability (CAL-148 [13]; 1 nM): 98.5%; normalised viability (CAL-120 [14]; 10 nM): 46.2%; normalised viability (HDQ-P1; 1 nM): 109%; normalised viability (DU-4475 [15]; 1 nM): 93.5%; normalised viability (HCC1937 [16]; 10 nM): 22.8%; normalised viability (BT-549 [17]; 10 nM): 12.5%; normalised viability (HCC1599; 10 nM): 109%; normalised viability (BT-474 [18]; 10 nM): 87.2%; normalised viability (Hs578T; 10 nM): 13.8%; normalised viability (MDA-MB-436; 10 nM): 73.5%; normalised viability (MDA-MB-468; 10 nM): 19.5%; normalised viability (MDA-MB-231 [19]; 10 nM): 28.1%; normalised viability (CAL-85-1 [20]; 1 nM): 104%; normalised viability (CAL-51; 1 nM): 106%; normalised viability (SK-BR-3; 10 nM): 33.2%; normalised viability (HCC1143 [21]; 10 nM): 53.4%; normalised viability (MFM-223 [22]; 10 nM): 14.8%
Nc1nc(Cl)nc2c1ncn2[C@@H]1O[C@H](CO)[C@@H](O)[C@@H]1F [Clofarabine]	0	7.09	0	0	0	0	0	0	3.72	0	0	103%	86.8%	78.8%	110%	105%	80%	85.6%	93.7%	99.2%	normalised viability (Hs578T; 100 nM): 84.6%; normalised viability (MDA-MB-436; 100 nM): 77%; normalised viability (MDA-MB-468; 100 nM): 91.3%; normalised viability (MDA-MB-231 [19]; 100 nM): 64.2%; normalised viability (CAL-85-1 [20]; 10 nM): 96.8%; normalised viability (CAL-51; 10 nM): 111%; normalised viability (SK-BR-3; 100 nM): 65%; normalised viability (HCC1143 [21]; 100 nM): 79.7%; normalised viability (MFM-223 [22]; 100 nM): 89.1%
CCN(CC)CCOc1ccc(C(=C(Cl)c2ccccc2)c2ccccc2)cc1 [Clomifene]	2.83	0	1.48	1.43	8.71	0	5.14	8.18	2.27	0	9.19	103%	94%	94.8%	115%	103%	100%	118%	100%	116%	normalised viability (Hs578T; 100 nM): 95.7%; normalised viability (MDA-MB-436; 100 nM): 114%; normalised viability (MDA-MB-468; 100 nM): 97.5%; normalised viability (MDA-MB-231 [19]; 100 nM): 101%; normalised viability (CAL-85-1 [20]; 10 nM): 96.2%; normalised viability (CAL-51; 10 nM): 97.5%; normalised viability (SK-BR-3; 100 nM): 93.4%; normalised viability (HCC1143 [21]; 100 nM): 88.5%; normalised viability (MFM-223 [22]; 100 nM): 103%
C[C@@H]1C[C@H]2[C@@H]3CCC4=CC(=O)C=C[C@]4(C)[C@@]3(F)[C@@H](O)C[C@]2(C)[C@@]1(O)C(=O)CO [Dexamethasone]	0	0	0	0	0	0	0	0	0	0	0	93.3%	97.7%	68.5%	113%	97.2%	94%	88.6%	117%	115%	normalised viability (Hs578T; 100 nM): 97.2%; normalised viability (MDA-MB-436; 100 nM): 94.9%; normalised viability (MDA-MB-468; 100 nM): 119%; normalised viability (MDA-MB-231 [19]; 100 nM): 121%; normalised viability (CAL-85-1 [20]; 10 nM): 110%; normalised viability (CAL-51; 10 nM): 94.9%; normalised viability (SK-BR-3; 100 nM): 70.3%; normalised viability (HCC1143 [21]; 100 nM): 83.4%; normalised viability (MFM-223 [22]; 100 nM): 93.4%
